In patent US20260262643A1, “HERBICIDAL BENZOXAZINES” (FMC CORPORATION, priority 2022, published 2026):

What was measured:
[1] = test system: corn; test: Test A postemergence; format: in vivo, Zea mays; conditions: 1000 g ai/ha, Postemergence; 0 to 100 scale
Outline: (§1)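 Weeds and crops in loam–sand blend were sprayed preemergence onto soil or postemergence at 2–10 cm (one- to two-leaf stage). Test chemicals were in a non-phytotoxic solvent with surfactant. After 10 days in the greenhouse, injury was rated visually against untreated controls on a 0 (no effect) to 100 (complete control) scale.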

[2] = test system: ragweed; test: Test A postemergence; format: in vivo, Ambrosia artemisiifolia; conditions: 1000 g ai/ha, Postemergence; 0 to 100 scale
Outline: as §1

[3] = test system: Pigweed, Redroot; test: Test A postemergence; format: in vivo, Amaranthus retroflexus; conditions: 1000 g ai/ha, Postemergence; 0 to 100 scale
Description: (§2) Seeds of plant species selected from barnyardgrass (Echinochloa crusgalli), blackgrass (Alopecurus myosuroides), corn (Zea mays), foxtail, giant (giant foxtail, Setaria faberi), goosegrass (Eleusine indica), kochia (Bassia scoparia), oat, wild (wild oat, Avena fatua), pigweed, palmer (palmer amaranth, palmer pigweed, Amaranthus palmeri), Pigweed, Redroot (redroot pigweed, Amaranthus retroflexus), ragweed (common ragweed, Ambrosia artemisiifolia), ryegrass, Italian (italian ryegrass, Lolium multiflorum), soybean (Glycine max), and wheat (Triticum aestivum) were planted into a blend of loam soil and sand and treated preemergence with a directed soil spray using test chemicals formulated in a non-phytotoxic solvent mixture which included a surfactant. At the same time, plants selected from these crops and weed species and also galium (catchweed bedstraw, Galium aparine) and horseweed (Erigeron canadensis) were planted in pots containing the same blend of loam soil and sand and treated with postemergence applications of test chemicals formulated in the same manner. Plants ranged in height from 2 to 10 cm and were in the one- to two-leaf stage for the postemergence treatment. Treated plants and untreated controls were maintained in a greenhouse for 10 days, after which time all treated plants were compared to untreated controls and visually evaluated for injury. Plant response ratings, summarized in Table A, are based on a 0 to 100 scale where 0 is no effect and 100 is complete control. A dash (-) response means no test result.

[4] = test system: barnyardgrass; test: Test A postemergence; format: in vivo, Echinochloa crusgalli; conditions: 1000 g ai/ha, Postemergence; 0 to 100 scale
Outline: as §1

[5] = test system: galium; test: Test A postemergence; format: in vivo, Galium aparine; conditions: 1000 g ai/ha, Postemergence; 0 to 100 scale
Outline: as §1

[6] = test system: foxtail, giant; test: Test A preemergence; format: in vivo, Setaria faberi; conditions: 1000 g ai/ha, 0 to 100 scale (0 no effect, 100 complete control), 10 days
Outline: as §1

[7] = test system: ryegrass, Italian; test: Test A preemergence; format: in vivo, Lolium multiflorum; conditions: 1000 g ai/ha, 0 to 100 scale (0 no effect, 100 complete control), 10 days
Outline: as §1

[8] = test system: kochia; test: Test A preemergence; format: in vivo, Bassia scoparia; conditions: 1000 g ai/ha, 0 to 100 scale (0 no effect, 100 complete control), 10 days
Outline: as §1

[9] = test system: foxtail, giant; test: Test A postemergence; format: in vivo, Setaria faberi; conditions: 1000 g ai/ha, Postemergence; 0 to 100 scale
Outline: as §1

[10] = test system: barnyardgrass; test: Test A preemergence; format: in vivo, Echinochloa crusgalli; conditions: 1000 g ai/ha, 0 to 100 scale (0 no effect, 100 complete control), 10 days
Outline: as §1

[11] = test system: ryegrass, Italian; test: Test A postemergence; format: in vivo, Lolium multiflorum; conditions: 1000 g ai/ha, Postemergence; 0 to 100 scale
Outline: as §1

[12] = test system: Pigweed, Redroot; test: Test A preemergence; format: in vivo, Amaranthus retroflexus; conditions: 1000 g ai/ha, 0 to 100 scale (0 no effect, 100 complete control), 10 days
Description: as §2

[13] = test system: blackgrass; test: Test A postemergence; format: in vivo, Alopecurus myosuroides; conditions: 1000 g ai/ha, Postemergence; 0 to 100 scale
Outline: as §1

[14] = test system: ragweed; test: Test A preemergence; format: in vivo, Ambrosia artemisiifolia; conditions: 1000 g ai/ha, 0 to 100 scale (0 no effect, 100 complete control), 10 days
Outline: as §1

[15] = test system: kochia; test: Test A postemergence; format: in vivo, Bassia scoparia; conditions: 1000 g ai/ha, Postemergence; 0 to 100 scale
Outline: as §1

[16] = test system: wheat; test: Test A postemergence; format: in vivo, Triticum aestivum; conditions: 1000 g ai/ha, Postemergence; 0 to 100 scale
Outline: as §1

[17] = test system: barnyardgrass; test: Test B flooded paddy test; format: in vivo, Echinochloa crus-galli; conditions: 250 g ai/ha, Flood, 13 days, 0 to 100 scale (0 no effect, 100 complete control)
Outline: (§3)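 Species grown to 2-leaf stage; pots flooded 3 cm above soil and compound applied directly to paddy water, depth maintained throughout. After 13 days in greenhouse, plants visually rated against controls on 0–100 scale (0 no effect, 100 complete control); dash means no result.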

[18] = test system: rice; test: Test B flooded paddy test; format: in vivo, Oryza sativa; conditions: 250 g ai/ha, Flood, 13 days, 0 to 100 scale (0 no effect, 100 complete control)
Outline: as §3

[19] = test system: ducksalad; test: Test B flooded paddy test; format: in vivo, Heteranthera limosa; conditions: 250 g ai/ha, Flood, 13 days, 0 to 100 scale (0 no effect, 100 complete control)
Outline: as §3

[20] = test system: sedge, umbrella; test: Test B flooded paddy test; format: in vivo, Cyperus difformis; conditions: 250 g ai/ha, Flood, 13 days, 0 to 100 scale (0 no effect, 100 complete control)
Outline: as §3

Row | SMILES | Plant response rating, Corn [1] | Plant response rating, Ragweed [2] | Plant response rating, Pigweed, Redroot [3] | Plant response rating, Barnyardgrass [4] | Plant response rating, Galium [5] | Plant response rating, Foxtail, Giant [6] | Plant response rating, Ryegrass, Italian [7] | Plant response rating, Kochia [8] | Plant response rating, Foxtail, Giant [9] | Plant response rating, Barnyardgrass [10] | Plant response rating, Ryegrass, Italian [11] | Plant response rating, Pigweed, Redroot [12] | Plant response rating, Blackgrass [13] | Plant response rating, Ragweed [14] | Plant response rating, Kochia [15] | Plant response rating, Wheat [16] | Plant response rating, Barnyardgrass [17] | Plant response rating, Rice [18] | Plant response rating, Ducksalad [19] | Plant response rating, Sedge, Umbrella [20]
1 | C[C@H]1CN(C(=O)c2cccc(-c3ccncc3)c2)c2cccc(Cl)c2O1 [Compound 123] | 0 | 0 | 60 | 20 | 50 | 0 | 30 | 30 | 10 | 40 | 30 | 30 | 20 | 30 | 20 | 0 | – | – | – | –
2 | CC1CN(C(=O)c2ccnc(-n3cncn3)c2)c2cccc(Cl)c2O1 (stereo not shown) [Compound 1] | – | – | – | – | – | 100 | 90 | 40 | – | 80 | – | 40 | – | 80 | – | – | 0 | 0 | 0 | 0
3 | CCC1CN(C(=O)c2ccnc(-n3cncn3)c2)c2cccc(Cl)c2O1 (single isomer, unassigned) [Compound 5] | – | – | – | – | – | 100 | 80 | 30 | – | 70 | – | 80 | – | 0 | – | – | 25 | 0 | 35 | 0
4 | CC1CN(C(=O)c2cccc(-n3cncn3)c2)c2ccccc2O1 (stereo not shown) [Compound 31] | 30 | 0 | 0 | 30 | – | 100 | 90 | 30 | 80 | 80 | 70 | 0 | 50 | 20 | 20 | 40 | – | – | – | –
5 | C=Cc1cccc2c1OC(C)CN2C(=O)c1cccc(-n2cncn2)c1 (stereo not shown) [Compound 26] | 0 | 0 | 0 | 0 | – | 0 | 0 | 0 | 0 | 0 | 0 | 0 | 0 | 0 | 0 | 0 | – | – | – | –
6 | CC1CN(C(=O)c2cccc(-n3cncn3)c2)c2ccc(F)cc2O1 (stereo not shown) [Compound 23] | 30 | 20 | 0 | 10 | – | 50 | 30 | 0 | 10 | 30 | 0 | 0 | 30 | 0 | 10 | 20 | – | – | – | –
7 | CC1CN(C(=O)c2cccc(-n3cncn3)c2)c2cc(F)ccc2O1 (stereo not shown) [Compound 24] | 10 | 0 | 0 | 30 | – | 30 | 100 | 0 | 50 | 50 | 60 | 0 | 60 | 0 | 10 | 30 | – | – | – | –
8 | C[C@H]1CN(C(=O)c2cccc(-n3cnnc3)c2)c2cccc(Cl)c2O1 [Compound 128] | 0 | 30 | 0 | 30 | 30 | 50 | 60 | 40 | 20 | 0 | 0 | 0 | 30 | 0 | 0 | 0 | – | – | – | –
9 | CCC1CN(C(=O)c2ccnc(-n3cncn3)c2)c2cccc(I)c2O1 (stereo not shown) [Compound 17] | 0 | 0 | 0 | 0 | 0 | 0 | 0 | 30 | 0 | 0 | 0 | 100 | 0 | 0 | 10 | 0 | – | – | – | –
10 | CC1CN(C(=O)c2ccnc(-n3cncn3)c2)c2cccc(Cl)c2O1 (stereo not shown) [Compound 10] | – | – | – | – | – | 100 | 80 | 30 | – | 90 | – | 40 | – | 80 | – | – | 0 | 0 | 0 | 0
11 | C[C@H]1CN(C(=O)c2cccc(-n3cccn3)c2)c2cccc(Cl)c2O1 [Compound 129] | 0 | 0 | 70 | 20 | 30 | 0 | 50 | 20 | 10 | 20 | 0 | 20 | 30 | 0 | 10 | 0 | – | – | – | –
